In ChEMBL document CHEMBL1201862, “PubChem BioAssay data set” (2004):
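Growth conditions: 96-well plates. Treatment: test compound, 48 hours, 5 concentrations. Analysis: linear interpolation between bracketing concentrations; unreached endpoints set to highest concentration. GI50 marks 50% less growth.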 Calls of active or inactive are those of the source. No stated cut-off is given here; in the data, active = GI50 up to about 1.1 µM and inactive = higher.

What was measured:
Test in all cases: DTP human tumour cell line panel, 48 h
[1] = system: A498
[2] = system: HCC 2998
[3] = system: HCT-15
[4] = system: M14
[5] = system: MCF7
[6] = system: MDA-MB-231
[7] = system: MDA-N
[8] = system: MOLT-4
[9] = system: NCI-H226
[10] = system: NCI-H23
[11] = system: NCI-H460
[12] = system: RPMI-8226
[13] = system: RXF 393
[14] = system: SF-268
[15] = system: SN12C
[16] = system: SNB-19
[17] = system: SR
[18] = system: UACC-257
[19] = system: UACC-62
[20] = system: UO-31

**Q.** Which results are given for `O=C(Nc1cccc(Cl)c1)Nn1cnnc1`?
**A.** GI50 [1]: > 100 µM (inactive); GI50 [2]: > 100 µM (inactive); GI50 [3]: > 100 µM; GI50 [4]: > 100 µM (inactive); GI50 [5]: > 100 µM (inactive); GI50 [6]: > 100 µM (inactive); GI50 [7]: > 100 µM (inactive); GI50 [8]: > 100 µM (inactive); GI50 [9]: > 100 µM (inactive); GI50 [10]: > 100 µM (inactive); GI50 [11]: > 100 µM (inactive); GI50 [12]: > 100 µM (inactive); GI50 [13]: > 100 µM (inactive); GI50 [14]: > 100 µM (inactive); GI50 [15]: > 100 µM (inactive); GI50 [16]: > 100 µM (inactive); GI50 [17]: > 100 µM (inactive); GI50 [18]: > 100 µM (inactive); GI50 [19]: > 100 µM (inactive); GI50 [20]: > 100 µM (inactive)

**Q.** What does the source list for `N=C(N)N/N=C(/c1ccccc1)c1ccc(O)cc1O`?
**A.** GI50 [1]: 21.9 µM (inactive); GI50 [2]: 16.9 µM (inactive); GI50 [3]: 39.4 µM; GI50 [4]: 23 µM (inactive); GI50 [5]: 30.7 µM (inactive); GI50 [6]: 45.1 µM (inactive); GI50 [7]: 11.7 µM (inactive); GI50 [9]: 29.9 µM (inactive); GI50 [10]: 31.8 µM (inactive); GI50 [11]: 27.4 µM (inactive); GI50 [12]: 30.5 µM (inactive); GI50 [13]: 45 µM (inactive); GI50 [14]: 32.6 µM (inactive); GI50 [15]: 29.4 µM (inactive); GI50 [16]: 40.6 µM (inactive); GI50 [17]: 20.8 µM (inactive); GI50 [18]: 35.6 µM (inactive); GI50 [19]: 30.1 µM (inactive); GI50 [20]: 46.1 µM (inactive)

**Q.** Which GI50 [1] does the source give for `COc1cc(C(SCc2ccccc2)SCc2ccccc2)ccc1O` here?
**A.** The GI50 was > 10 µM (inactive).

**Q.** And the GI50 [2]?
**A.** The GI50 was > 10 µM (inactive).

**Q.** What about the GI50 [3] of the same compound?
**A.** The GI50 was over 10 µM.

**Q.** What about the GI50 [4] of the same compound?
**A.** The GI50 was > 10 µM (inactive).

**Q.** And the GI50 [5]?
**A.** The GI50 was > 10 µM (inactive).

**Q.** What about the GI50 [6] of the same compound?
**A.** Its GI50 is > 10 µM (inactive).

**Q.** And the GI50 [7]?
**A.** The GI50 was > 10 µM (inactive).

**Q.** And the GI50 [8]?
**A.** Its GI50 is 9.33 µM (inactive).

**Q.** What about the GI50 [9] of the same compound?
**A.** Its GI50 is > 10 µM (inactive).

**Q.** And the GI50 [11]?
**A.** Its GI50 is > 10 µM (inactive).

**Q.** And the GI50 [12]?
**A.** Its GI50 is > 10 µM (inactive).

**Q.** What about the GI50 [13] of the same compound?
**A.** The GI50 was 9.4 µM (inactive).

**Q.** And the GI50 [14]?
**A.** Its GI50 is > 10 µM (inactive).

**Q.** And the GI50 [15]?
**A.** The GI50 was > 10 µM (inactive).

**Q.** What about the GI50 [16] of the same compound?
**A.** The GI50 was > 10 µM (inactive).

**Q.** What about the GI50 [17] of the same compound?
**A.** Its GI50 is > 10 µM (inactive).

**Q.** What about the GI50 [19] of the same compound?
**A.** The GI50 was > 10 µM (inactive).

**Q.** And the GI50 [20]?
**A.** The GI50 was 7.06 µM (inactive).

**Q.** For `O=[N+]([O-])c1ccc2nc(O)n[n+]([O-])c2c1`, which GI50 [1] is on record?
**A.** The GI50 was > 100 µM (inactive).

**Q.** What about the GI50 [2] of the same compound?
**A.** The GI50 was > 100 µM (inactive).

**Q.** And the GI50 [3]?
**A.** The GI50 was over 100 µM.

**Q.** What about the GI50 [4] of the same compound?
**A.** Its GI50 is > 100 µM (inactive).

**Q.** And the GI50 [5]?
**A.** The GI50 was > 100 µM (inactive).

**Q.** And the GI50 [6]?
**A.** Its GI50 is > 100 µM (inactive).

**Q.** And the GI50 [7]?
**A.** The GI50 was > 100 µM (inactive).

**Q.** And the GI50 [8]?
**A.** The GI50 was > 100 µM (inactive).

**Q.** What about the GI50 [9] of the same compound?
**A.** The GI50 was > 100 µM (inactive).

**Q.** And the GI50 [10]?
**A.** Its GI50 is > 100 µM (inactive).

**Q.** And the GI50 [11]?
**A.** The GI50 was > 100 µM (inactive).

**Q.** And the GI50 [12]?
**A.** Its GI50 is 97.9 µM (inactive).

**Q.** What about the GI50 [13] of the same compound?
**A.** The GI50 was > 100 µM (inactive).

**Q.** What about the GI50 [14] of the same compound?
**A.** Its GI50 is > 100 µM (inactive).

**Q.** And the GI50 [15]?
**A.** The GI50 was > 100 µM (inactive).

**Q.** What about the GI50 [16] of the same compound?
**A.** The GI50 was > 100 µM (inactive).

**Q.** And the GI50 [17]?
**A.** Its GI50 is > 20.6 µM (inactive).

**Q.** And the GI50 [18]?
**A.** Its GI50 is > 100 µM (inactive).

**Q.** What about the GI50 [19] of the same compound?
**A.** The GI50 was > 100 µM (inactive).

**Q.** And the GI50 [20]?
**A.** The GI50 was > 100 µM (inactive).

**Q.** Which results are given for `COc1ccc(C(=O)/C=C/c2ccc3c(c2)OCO3)c(OCc2ccccc2)c1`?
**A.** GI50 [1]: > 84.9 µM (inactive); GI50 [2]: 8.28 µM (inactive); GI50 [3]: 5.08 µM; GI50 [4]: > 65.5 µM (inactive); GI50 [5]: 6.22 µM (inactive); GI50 [6]: > 70.1 µM (inactive); GI50 [7]: 11.7 µM (inactive); GI50 [8]: 3.8 µM (inactive); GI50 [9]: 18.6 µM (inactive); GI50 [10]: 24.3 µM (inactive); GI50 [11]: 8.22 µM (inactive); GI50 [12]: 4.45 µM (inactive); GI50 [13]: 11 µM (inactive); GI50 [14]: 6.76 µM (inactive); GI50 [15]: 15.9 µM (inactive); GI50 [16]: > 100 µM (inactive); GI50 [17]: 3.24 µM (inactive); GI50 [18]: > 63 µM (inactive); GI50 [19]: 17.4 µM (inactive); GI50 [20]: 37.2 µM (inactive)

**Q.** How did the GI50 [1] turn out when `CCC1CC2CN3CCc4c([nH]c5c(-c6c(OC)ccc7c8c([nH]c67)[C@]6(C(=O)OC)CC7CC(CC)C6N(CC8)C7)c(O)ccc45)[C@](C(=O)OC)(C2)C13` (stereo not given in full) was run?
**A.** Its GI50 is 15.1 µM (inactive).

**Q.** What about the GI50 [2] of the same compound?
**A.** The GI50 was 13.3 µM (inactive).

**Q.** What about the GI50 [3] of the same compound?
**A.** Its GI50 is 15.2 µM.

**Q.** And the GI50 [4]?
**A.** The GI50 was 24.9 µM (inactive).

**Q.** What about the GI50 [5] of the same compound?
**A.** Its GI50 is 6.82 µM (inactive).

**Q.** What about the GI50 [6] of the same compound?
**A.** The GI50 was 21.6 µM (inactive).

**Q.** What about the GI50 [7] of the same compound?
**A.** Its GI50 is 12.2 µM (inactive).

**Q.** And the GI50 [8]?
**A.** Its GI50 is 2.64 µM (inactive).

**Q.** What about the GI50 [9] of the same compound?
**A.** The GI50 was 4.92 µM (inactive).

**Q.** And the GI50 [10]?
**A.** Its GI50 is 16 µM (inactive).

**Q.** What about the GI50 [11] of the same compound?
**A.** Its GI50 is 14.7 µM (inactive).

**Q.** And the GI50 [13]?
**A.** Its GI50 is 12.2 µM (inactive).

**Q.** What about the GI50 [14] of the same compound?
**A.** Its GI50 is 12.1 µM (inactive).

**Q.** What about the GI50 [15] of the same compound?
**A.** The GI50 was 4.34 µM (inactive).

**Q.** And the GI50 [16]?
**A.** The GI50 was 14.3 µM (inactive).

**Q.** What about the GI50 [17] of the same compound?
**A.** The GI50 was 13.3 µM (inactive).

**Q.** What about the GI50 [18] of the same compound?
**A.** The GI50 was 18.6 µM (inactive).

**Q.** What about the GI50 [19] of the same compound?
**A.** The GI50 was 14.3 µM (inactive).

**Q.** And the GI50 [20]?
**A.** Its GI50 is 12.7 µM (inactive).

**Q.** `CCCCCCCCCCN(CCCCCCCCCC)C(=O)COc1c2cc(C(C)(C)C)cc1Cc1cc(C(C)(C)C)cc(c1OCC(=O)N(CCCCCCCCCC)CCCCCCCCCC)Cc1cc(C(C)(C)C)cc(c1OCC(=O)N(CCCCCCCCCC)CCCCCCCCCC)Cc1cc(C(C)(C)C)cc(c1OCC(=O)N(CCCCCCCCCC)CCCCCCCCCC)C2` was tested. Which GI50 [1] did it give?
**A.** The GI50 was 15.5 µM (inactive).

**Q.** What about the GI50 [2] of the same compound?
**A.** The GI50 was 8.85 µM (inactive).

**Q.** And the GI50 [3]?
**A.** The GI50 was 8.77 µM.

**Q.** And the GI50 [4]?
**A.** The GI50 was 2.92 µM (inactive).

**Q.** And the GI50 [5]?
**A.** The GI50 was 3.59 µM (inactive).

**Q.** And the GI50 [6]?
**A.** Its GI50 is 17.6 µM (inactive).

**Q.** What about the GI50 [7] of the same compound?
**A.** The GI50 was 12.2 µM (inactive).

**Q.** What about the GI50 [8] of the same compound?
**A.** Its GI50 is 2.76 µM (inactive).

**Q.** And the GI50 [9]?
**A.** The GI50 was 19.3 µM (inactive).

**Q.** And the GI50 [10]?
**A.** The GI50 was 1.75 µM (inactive).

**Q.** What about the GI50 [11] of the same compound?
**A.** Its GI50 is 12.6 µM (inactive).

**Q.** What about the GI50 [13] of the same compound?
**A.** Its GI50 is 9.68 µM (inactive).

**Q.** What about the GI50 [14] of the same compound?
**A.** The GI50 was 15.1 µM (inactive).

**Q.** And the GI50 [15]?
**A.** Its GI50 is 13.4 µM (inactive).

**Q.** And the GI50 [16]?
**A.** Its GI50 is 9.79 µM (inactive).

**Q.** What about the GI50 [17] of the same compound?
**A.** The GI50 was 2.96 µM (inactive).

**Q.** And the GI50 [18]?
**A.** The GI50 was 15.6 µM (inactive).

**Q.** And the GI50 [19]?
**A.** Its GI50 is 12.6 µM (inactive).

**Q.** What about the GI50 [20] of the same compound?
**A.** The GI50 was 22 µM (inactive).
